In US9931347B2, “Pharmaceutical compound” (IOmet Pharma Ltd., priority 2013, dated 2018):

The molecules below were run against T1, IDO (SKOV3 human ovarian adenocarcinoma cells, IFN-γ induced) (Homo sapiens, UniProt P14902) (assay: SKOV3 Kynurenine cell based assay). Conditions: IDO induced by 500 ng/ml IFN-γ, 500 μM L-tryptophan, 48 hours.
T1 construct: IDO expression was induced in the SKOV3 cells by the addition of 500 ng/ml IFN-γ; endogenous in cells; host or cells: SKOV3 human ovarian adenocarcinoma cells, induced with IFN-γ
Protocol: (§1) Exemplary compounds of the invention were prepared, and tested to determine their effect as TDO and/or IDO inhibitors. Two different assays were employed: 1. a cell-based assay for detecting the effect of test compounds on kynurenine production in two different cancer cell types. This assay utilised cancer cells which expressed either TDO or IDO and as such was used as a means of testing compound activity at these two enzymes in a cell-based context. 2. a TDO and IDO biochemical coupled assay which utilised recombinantly produced and purified TDO and IDO enzymes in combination with the enzyme formamidase. This coupled enzyme system allowed conversion of N-formylkynurenine produced by TDO or IDO activity to kynurenine which was then quantified by fluorescence following addition of Erhlich's Reagent The protocols for these are set out below.
(§2) A172 (human glioblastoma) and SKOV3 (human ovarian adenocarcinoma) cells were seeded in a 96 well plate at 30,000 or 40,000 cells per well respectively in phenol red-free RPMI supplemented with 10% FCS, 2 mM L-glutamine and 500 μM L-tryptophan. IDO expression was induced in the SKOV3 cells by the addition of 500 ng/ml IFN-γ. Cells were incubated at 37° C. with or without the addition of test compound. After 48 hours, the cells were removed by centrifugation and Erhlich's reagent was added to the supernatant.

T1 sequence (P14902 whole entry): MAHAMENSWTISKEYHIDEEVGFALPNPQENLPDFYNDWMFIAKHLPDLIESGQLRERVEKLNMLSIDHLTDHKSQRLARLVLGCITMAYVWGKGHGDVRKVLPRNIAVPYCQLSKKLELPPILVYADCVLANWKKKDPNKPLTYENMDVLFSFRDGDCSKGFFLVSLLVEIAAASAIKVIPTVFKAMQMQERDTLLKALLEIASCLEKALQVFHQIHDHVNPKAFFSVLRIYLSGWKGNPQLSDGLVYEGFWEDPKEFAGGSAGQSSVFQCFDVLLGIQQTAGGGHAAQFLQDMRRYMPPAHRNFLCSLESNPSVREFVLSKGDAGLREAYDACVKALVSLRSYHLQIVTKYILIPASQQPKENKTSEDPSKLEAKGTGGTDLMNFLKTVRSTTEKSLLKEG

Row | SMILES | SKOV3 Kynurenine cell based assay pIC50
1 | CC(=O)N1CC=C(c2c[nH]c3c(F)cc(F)cc23)CC1 [Compound 231] | + (+ = pIC50 4.00-4.99)
2 | CS(=O)(=O)N1CCC(c2c[nH]c3cc(Cl)ccc23)CC1 [Compound 244] | + (+ = pIC50 4.00-4.99)
3 | CS(=O)(=O)N1CCC(C2C(=O)Nc3ccc(Br)cc32)CC1 (centres unmarked) [Compound 306] | ++ (++ = pIC50 5.00-5.99)
4 | CC(C)S(=O)(=O)N1CCC(c2c[nH]c3cc(F)ccc23)CC1 [Compound 289] | + (+ = pIC50 4.00-4.99)
5 | O=C1CN(c2c[nH]c3ccccc23)CCN1 [Compound 188] | +− (+− = pIC50 <4.00)
6 | CN1CC2CN(c3c[nH]c4ccccc34)CCN2C1=O (centres unmarked) [Compound 192] | +− (+− = pIC50 <4.00)
7 | CC1(C)CN(c2c[nH]c3ccccc23)CCN1S(C)(=O)=O [Compound 191] | +− (+− = pIC50 <4.00)
8 | O=S(=O)(N1CCCC1)N1CCC(c2c[nH]c3ccccc23)CC1 [Compound 213] | + (+ = pIC50 4.00-4.99)
9 | CC(=O)N1CC=C(c2c[nH]c3cc(C#N)ccc23)CC1 [Compound 214] | + (+ = pIC50 4.00-4.99)
10 | CC(=O)N1CCC(c2c[nH]c3cnccc23)CC1 [Compound 203] | + (+ = pIC50 4.00-4.99)
11 | CS(=O)(=O)N1CCC(C2C(=O)Nc3ccc(C(F)(F)F)cc32)CC1 (centres unmarked) [Compound 310] | + (+ = pIC50 4.00-4.99)
12 | CS(=O)(=O)N1CCC(c2c[nH]c3cc(OCc4ccccc4)ccc23)CC1 [Compound 222] | + (+ = pIC50 4.00-4.99)
13 | CS(=O)(=O)N1CCC(C2C(=O)Nc3ccc(Cl)cc32)CC1 (centres unmarked) [Compound 294] | ++ (++ = pIC50 5.00-5.99)
14 | CS(=O)(=O)N1CCC(C2C(=O)Nc3ccc(C#N)cc32)CC1 (centres unmarked) [Compound 312] | + (+ = pIC50 4.00-4.99)
15 | CS(=O)(=O)N1CCC(=C2C(=O)Nc3ccc(Br)cc32)CC1 [Compound 305] | + (+ = pIC50 4.00-4.99)
16 | CCN(CC)C(=O)N1CCC(c2c[nH]c3ccccc23)CC1 [Compound 211] | + (+ = pIC50 4.00-4.99)
17 | CS(=O)(=O)N1CCCN(c2c[nH]c3ccccc23)CC1 [Compound 302] | + (+ = pIC50 4.00-4.99)
18 | CS(=O)(=O)N1CCC(c2c[nH]c3c(Cl)cccc23)CC1 [Compound 235] | + (+ = pIC50 4.00-4.99)
19 | CC(=O)N1CCC(c2c(C)[nH]c3ccccc23)CC1 [Compound 195] | + (+ = pIC50 4.00-4.99)
20 | CC(=O)N1CCC(c2c[nH]c3cc(Cl)c(F)cc23)CC1 [Compound 242] | + (+ = pIC50 4.00-4.99)

These molecules were tested against T2, TDO (A172 human glioblastoma cells) (Homo sapiens, UniProt P48775) (assay: A172 Kynurenine cell based assay). Conditions: 500 μM L-tryptophan, 48 hours, kynurenine by Erhlich's reagent.
T2 construct: This assay utilised cancer cells which expressed either TDO or IDO; endogenous in cells; host or cells: A172 human glioblastoma cells
Protocol: as §1
as §2, with “supernatant. The Erhlich's reagent was incubated for 5 minutes before the absorbance was read at 490 nm.” for “supernatant.”

T2 sequence (P48775 whole entry): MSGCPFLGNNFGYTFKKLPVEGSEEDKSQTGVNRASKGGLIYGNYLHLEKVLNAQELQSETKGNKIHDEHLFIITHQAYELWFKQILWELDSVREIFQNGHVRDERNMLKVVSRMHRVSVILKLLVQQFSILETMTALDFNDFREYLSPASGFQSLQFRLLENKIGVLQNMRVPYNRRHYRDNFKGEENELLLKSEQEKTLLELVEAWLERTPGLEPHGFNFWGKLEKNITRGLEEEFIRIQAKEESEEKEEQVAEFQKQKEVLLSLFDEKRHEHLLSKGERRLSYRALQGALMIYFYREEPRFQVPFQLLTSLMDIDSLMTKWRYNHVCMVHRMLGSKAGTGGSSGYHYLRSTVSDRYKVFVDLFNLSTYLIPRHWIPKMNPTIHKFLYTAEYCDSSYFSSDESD

Row | SMILES | A172 Kynurenine cell based assay pIC50
21 | CC(=O)N1CCN(c2c[nH]c3ccccc23)CC1C (centres unmarked) [Compound 298] | ++ (++ = pIC50 5.00-5.99)
22 | CC(=O)N1CC=C(c2c[nH]c3c(F)cc(F)cc23)CC1 [Compound 231] | + (+ = pIC50 4.00-4.99)
23 | CS(=O)(=O)N1CCC(c2c[nH]c3cc(Cl)ccc23)CC1 [Compound 244] | + (+ = pIC50 4.00-4.99)
24 | CC(C)S(=O)(=O)N1CCC(c2c[nH]c3cc(F)ccc23)CC1 [Compound 289] | ++ (++ = pIC50 5.00-5.99)
25 | O=C1CN(c2c[nH]c3ccccc23)CCN1 [Compound 188] | ++ (++ = pIC50 5.00-5.99)
26 | CN1CC2CN(c3c[nH]c4ccccc34)CCN2C1=O (centres unmarked) [Compound 192] | + (+ = pIC50 4.00-4.99)
27 | CC1(C)CN(c2c[nH]c3ccccc23)CCN1S(C)(=O)=O [Compound 191] | ++ (++ = pIC50 5.00-5.99)
28 | c1ccc2c(N3CCn4ncnc4C3)c[nH]c2c1 [Compound 315] | + (+ = pIC50 4.00-4.99)
29 | O=S(=O)(N1CCOCC1)N1CCC(c2c[nH]c3ccccc23)CC1 [Compound 220] | + (+ = pIC50 4.00-4.99)
30 | O=S(=O)(N1CCCC1)N1CCC(c2c[nH]c3ccccc23)CC1 [Compound 213] | + (+ = pIC50 4.00-4.99)
31 | CC(=O)N1CCC(c2c[nH]c3cnccc23)CC1 [Compound 203] | + (+ = pIC50 4.00-4.99)
32 | CCN1CC(C(=O)N2CCC(c3c[nH]c4cc(F)ccc34)CC2)CC1=O (centres unmarked) [Compound 268] | + (+ = pIC50 4.00-4.99)
33 | Cn1cnc(C(=O)N2CCC(c3c[nH]c4cc(F)ccc34)CC2)c1 [Compound 272] | + (+ = pIC50 4.00-4.99)
34 | CS(=O)(=O)N1CCN(c2c[nH]c3ccccc23)CC1C#N (centres unmarked) [Compound 314] | ++ (++ = pIC50 5.00-5.99)
35 | CN(C)S(=O)(=O)N1CCN(c2c[nH]c3ccccc23)CC1 [Compound 297] | ++ (++ = pIC50 5.00-5.99)
36 | O=C(c1cnccn1)N1CCC(c2c[nH]c3cc(F)ccc23)CC1 [Compound 261] | + (+ = pIC50 4.00-4.99)
37 | COCCNC(=O)N1CCC(c2c[nH]c3ccccc23)CC1 [Compound 212] | + (+ = pIC50 4.00-4.99)
38 | O=S(=O)(CC(F)(F)F)N1CCC(c2c[nH]c3cc(F)ccc23)CC1 [Compound 287] | ++ (++ = pIC50 5.00-5.99)
39 | COCC(=O)N1CCC(c2c[nH]c3cc(F)ccc23)CC1 [Compound 264] | ++ (++ = pIC50 5.00-5.99)
40 | Fc1ccc2c(C3CCN(c4ccccc4)CC3)c[nH]c2c1 [Compound 303] | ++ (++ = pIC50 5.00-5.99)
41 | O=C(c1ccno1)N1CCC(c2c[nH]c3cc(F)ccc23)CC1 [Compound 271] | + (+ = pIC50 4.00-4.99)
42 | CN(C)CCNC(=O)N1CCC(c2c[nH]c3ccccc23)CC1 [Compound 246] | + (+ = pIC50 4.00-4.99)
43 | CC(=O)N1CCC(c2c[nH]c3cc(F)cc(F)c23)CC1 [Compound 202] | + (+ = pIC50 4.00-4.99)

Row | SMILES | A172 Kynurenine cell based assay pIC50
44 | O=C(NCCO)N1CCC(c2c[nH]c3ccccc23)CC1 [Compound 226] | + (+ = pIC50 4.00-4.99)
45 | O=C(C1CCOC1)N1CCC(c2c[nH]c3cc(F)ccc23)CC1 (centres unmarked) [Compound 262] | + (+ = pIC50 4.00-4.99)
46 | CS(=O)(=O)N1CCC(c2c[nH]c3c(F)cccc23)CC1 [Compound 194] | + (+ = pIC50 4.00-4.99)
47 | CC(C)CN1CC(C(=O)N2CCC(c3c[nH]c4cc(F)ccc34)CC2)CC1=O (centres unmarked) [Compound 275] | + (+ = pIC50 4.00-4.99)
48 | CS(=O)(=O)N1CCC(c2c[nH]c3cc(F)cc(F)c23)CC1 [Compound 216] | + (+ = pIC50 4.00-4.99)
49 | CS(=O)(=O)N1CC=C(c2c[nH]c3cc(C(F)(F)F)ccc23)CC1 [Compound 224] | + (+ = pIC50 4.00-4.99)
50 | O=S(=O)(c1ccccc1)N1CCC(c2c[nH]c3cc(F)ccc23)CC1 [Compound 300] | ++ (++ = pIC50 5.00-5.99)
51 | CC(C)C(=O)N1CCC(c2c[nH]c3cc(F)ccc23)CC1 [Compound 266] | + (+ = pIC50 4.00-4.99)
52 | Cc1ccc2c(C3=CCN(S(C)(=O)=O)CC3)c[nH]c2c1 [Compound 206] | ++ (++ = pIC50 5.00-5.99)
53 | CCNS(=O)(=O)N1CCC(c2c[nH]c3ccccc23)CC1 [Compound 258] | + (+ = pIC50 4.00-4.99)
54 | Fc1ccc2c(C3CCN(c4nnn[nH]4)CC3)c[nH]c2c1 [Compound 290] | + (+ = pIC50 4.00-4.99)
55 | CS(=O)(=O)N1CCN(c2c[nH]c3ccccc23)CC1CN (centres unmarked) [Compound 318] | ++ (++ = pIC50 5.00-5.99)
56 | O=C(c1cocn1)N1CCC(c2c[nH]c3cc(F)ccc23)CC1 [Compound 274] | + (+ = pIC50 4.00-4.99)
57 | CC(C)C(=O)N1CCC(C(=O)N2CCC(c3c[nH]c4cc(F)ccc34)CC2)CC1 [Compound 267] | + (+ = pIC50 4.00-4.99)
58 | CC(=O)N1CCC(c2c[nH]c3cc(C#N)ccc23)CC1 [Compound 237] | + (+ = pIC50 4.00-4.99)
59 | CC(=O)N1CCN(c2c[nH]c3ccccc23)CC1C#N (centres unmarked) [Compound 313] | + (+ = pIC50 4.00-4.99)
60 | CS(=O)(=O)N1CC=C(c2c[nH]c3ccc(C#N)cc23)CC1 [Compound 230] | ++ (++ = pIC50 5.00-5.99)
61 | COCCNS(=O)(=O)N1CCC(c2c[nH]c3ccccc23)CC1 [Compound 219] | + (+ = pIC50 4.00-4.99)
62 | CC(=O)N1CCC(c2c[nH]c3cc(F)ccc23)CC1 [Compound 200] | ++ (++ = pIC50 5.00-5.99)
63 | O=C1NCC2CN(c3c[nH]c4ccccc34)CCN12 (centres unmarked) [Compound 307] | ++ (++ = pIC50 5.00-5.99)
64 | Fc1ccc2c(C3CCN(c4cccnc4)CC3)c[nH]c2c1 [Compound 309] | ++ (++ = pIC50 5.00-5.99)
65 | CC(=O)N1CC=C(c2c[nH]c3cc(F)cc(F)c23)CC1 [Compound 201] | ++ (++ = pIC50 5.00-5.99)
